As a reminder, the IC50 is the concentration that gives 50% inhibition.

Each structure is given as a SMILES string. Like-named read-outs stand apart in the source and are kept apart here.

IC50 data for 3 molecules are collected here from PMC11243327, “Design, Synthesis, Antitumor, and Antiplasmodial Evaluation of New 7-Chloroquinoline–Benzimidazole Hybrids” (Molecules, 2024).

Data set [1] has as its system THP-1 (acute monocytic leukemia). Set-up: method as in PMID 36677600. The settings on record: previously published result, ref [19]; cited from earlier work.
Data set [2] has as its system CaCo-2 (human colorectal adenocarcinoma). The settings on record: previously published result, cited from earlier work.
The subject of data set [3] is MRC-5 (human fetal lung fibroblasts). Set-up: method as in PMID 36677600. The settings on record: previously published result, ref [19]; cited from earlier work.
Data set [4] deals with HuT78 (T-cell lymphoma). Set-up: method as in PMID 36677600. The settings on record: previously published result, ref [19]; cited from earlier work.
The test system of data set [5] is HeLa (human cervical adenocarcinoma). The settings on record: previously published result, cited from earlier work.
Data set [6] relates to HL-60 (acute promyelocytic leukemia). Set-up: method as in PMID 36677600. The settings on record: previously published result, ref [19]; cited from earlier work.
Data set [7] has as its system P. falciparum 3D7 (CQ-susceptible), erythrocytic stage. Kind of data set: Antiplasmodial HRP2 assay, Pf3D7. Type of data set: cell-based, Plasmodium falciparum. The settings on record: Plasmodium falciparum, 3D7, 72 h; chloroquine-sensitive strain, three days incubation, HRP2-ELISA, mean ± SD, n ≥ 2; read-out: IC50 Pf3D7. As for the experimental part: (§1) Method used to evaluate the antiplasmodial activity of quinoline–benzimidazole hybrids against two P. falciparum strains, chloroquine-sensitive (Pf3D7) and chloroquine-resistant (PfDd2), was previously described. […] Chloroquine was used as a positive control.
(§2) In brief, 96-well plates were pre-coated with the tested compounds at 1:3 dilution before ring-stage parasites were added to the complete culture medium at a hematocrit of 1.5% and a parasitemia of 0.05%. […] All compounds were analyzed in duplicate in at least two independent experiments. The IC50 was determined by nonlinear regression analysis of the logarithmic concentration-response curves using the drc package v3.0-1 of R v4.1.0 [56].
(An ELISA detects its analyte on a solid surface through an enzyme-linked reagent.)

In data set [8] the test system is THP-1 (acute monocytic leukemia). Kind of data set: Antiproliferative MTT assay, THP-1. The settings on record: Homo sapiens, THP-1, 72 h, mean ± SD of three experiments. Type of data set: cell-based, human. The procedure:
(§3) The effect of the new synthesized compounds was tested on five human tumor cell lines, HeLa (human cervical adenocarcinoma; from ATCC), CaCo-2 (human colorectal adenocarcinoma), HL-60 (acute promyelocytic leukemia), HuT78 (T-cell lymphoma), and THP-1 (acute monocytic leukemia), as well as one non-tumor cell line, MRC-5 (human fetal lung fibroblasts). The MRC-5 cells were used between 24 and 26 passages. The cells were cultured in two different types of media: DMEM (Gibco Thermo Fisher Scinetific Inc., Runcorn, UK) and RPMI 1640 (Gibco, Thermo Fisher Scinetific Inc., UK). Both media were supplemented with 2 mM glutamine, fetal bovine serum (10%; heat inactivated), and antibiotics (100 U penicillin and 0.1 mg streptomycin). RPMI 1640 was additionally supplemented with 10 mM HEPES and 1 mM sodium pyruvate. Cells growing in a monolayer were cultured in DMEM, while cells growing in suspension were cultured in RPMI 1640. Cells were grown in humidified atmosphere under the conditions of 37 °C/5% CO2 gas in a CO2 incubator (IGO 150 CELLlife^TM, JOUAN, Thermo Fisher Scientific, Waltham, MA, USA).
(§4) Growth-inhibitory activity was assessed using a slightly modified procedure based on the National Cancer Institute’s protocol. Briefly, cells were seeded in 96-well microtiter plates and incubated for 24 h. They were then treated with 10^−7 to 10^−4 M concentrations of the tested compounds for an additional 72 h. After the treatment period, the effects of the tested compounds on the growth rate of the cells were examined using the MTT assay. Absorbance was measured at 595 nm using a microplate reader. The IC50 value, which represents a 50% inhibition of cell growth, and QC calculation were performed using the GraphPadPrism software (La Jolla, USA), v. 5.03. and Excel software, Office 365. The selectivity index was calculated according to the following formula: SI=IC50 value of normal cell line/IC50 value of cancer cell line
(§5) The effect of each concentration was analyzed by plotting the logarithm of the concentration of the evaluated compound against the corresponding percentage inhibition value using least squares.
Background: Formazan colour is commonly taken as a measure of viable cells.

The subject of data set [9] is HL-60 (acute promyelocytic leukemia). Kind of data set: Antiproliferative MTT assay, HL-60. Type of data set: cell-based, human. The settings on record: Homo sapiens, HL-60, 72 h, mean ± SD of three experiments. The procedure: as §3, §4, §5
Data set [10] concerns P. falciparum Dd2 (multiresistant), erythrocytic stage. Kind of data set: Antiplasmodial HRP2 assay, PfDd2. Type of data set: cell-based, Plasmodium falciparum. The settings on record: Plasmodium falciparum, DD2, 72 h; chloroquine-resistant strain, three days incubation, HRP2-ELISA, mean ± SD, n ≥ 2; read-out: IC50 PfDd2. The procedure: as §1, §2
Data set [11] has as its system HuT78 (T-cell lymphoma). As to the kind of experiment: Antiproliferative MTT assay, Hut78. Type of data set: cell-based, human. The settings on record: Homo sapiens, HuT78, 72 h, mean ± SD of three experiments. As for the experimental part: as §3, §4, §5
In data set [12] the test system is MRC-5 (human fetal lung fibroblasts). As to the kind of experiment: Antiproliferative MTT assay, MRC-5. The format is cell-based. The settings on record: Homo sapiens, MRC5, non-tumor cell line, 72 h, mean ± SD of three experiments. The procedure: as §3, §4, §5
Data set [13] has as its system HeLa (human cervical adenocarcinoma). As to the kind of experiment: Antiproliferative MTT assay, HeLa. The settings on record: Homo sapiens, HeLa, 72 h, mean ± SD of three experiments. Type of data set: cell-based. The procedure: as §3, §4, §5
Data set [14] can be described thus: Antiproliferative MTT assay, whole panel of cell lines. Type of data set: cell-based. The settings on record: human, range over the cell lines tested, read-out: IC50 (cytotoxicity) across non-tumor and tumor cell lines. As for the experimental part:
as §3, with “Cells growing in a monolayer were cultured in DMEM, while cells growing in suspension were cultured in RPMI 1640. Cells were grown in humidified atmosphere under the conditions of 37 °C/5% CO2 gas in a CO2 incubator (IGO 150 CELLlife^TM, JOUAN, Thermo Fisher Scientific, Waltham, MA, USA).” left out
Growth-inhibitory activity was assessed using a slightly modified procedure based on the National Cancer Institute’s protocol. […] Absorbance was measured at 595 nm using a microplate reader. […] The selectivity index was calculated according to the following formula: SI=IC50 value of normal cell line/IC50 value of cancer cell line
as §5

Data set [15] concerns CaCo-2 (human colorectal adenocarcinoma). As to the kind of experiment: Antiproliferative MTT assay, CaCo-2. Type of data set: cell-based. The settings on record: Homo sapiens, Caco-2, 72 h, mean ± SD of three experiments. The procedure:
as §3, §4, §5

With `O=c1[nH]cc(F)c(=O)[nH]1` [Compound 5-FU, 5-fluorouracil], the IC50 in data set [1] is over 100 µM; in data set [2] (ref [19]), 5.9 µM; in [3] it was 54.1 µM; in the data set with HuT78 (T-cell lymphoma) [4] it was over 100 µM; in [5] (ref [19]) it was 8.2 µM; in data set [6], 76.4 µM.

On to `N=C(NC1CCCC1)c1ccc2nc(-c3ccc(OCCNc4ccnc5cc(Cl)ccc45)cc3)[nH]c2c1` [Compound 10d], for which the IC50 in data set [7] was 58.5 ± 5.9 nM; in data set [8], over 100 µM; in data set [2] (ref [18]) it was over 100 µM; in data set [9], over 100 µM; in data set [5] (ref [18]) it was over 100 µM; in data set [10], 36.9 ± 17.7 nM. In addition, the IC50 turned out to be 92 ± 6.1 µM in the data set with HuT78 (T-cell lymphoma) [11] and 99.2 ± 8.3 µM in data set [12].

Regarding `COc1cc(-c2nc3ccc(C(=N)NC4CCCC4)cc3[nH]2)ccc1OCCCNc1ccnc2cc(Cl)ccc12` [Compound 15d], the IC50 in data set [7] is 28.7 ± 9.4 nM; in data set [13], over 100 µM; in data set [8], 29.6 ± 0.3 µM; in data set [15], over 100 µM; in data set [9], 19.5 ± 1.1 µM; in data set [10] it was 22.9 ± 4.3 nM. Further, the values for the IC50 (in the data set on HuT78 (T-cell lymphoma) [11]; in data set [12]) were 12.8 ± 5.5 µM and 95.2 ± 9.7 µM, respectively. The IC50 at 72 h in [14] was in the range of 12.8 to 100 µM.
